ChEMBL document CHEMBL1201862, “PubChem BioAssay data set” (2004)
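Growth conditions: 96-well plates. Treatment: test compound, 48 hours, 5 concentrations. Analysis: linear interpolation between bracketing concentrations; unreached endpoints set to highest concentration. The concentration for 50% growth inhibition is given as GI50.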 Activity calls are given as the source filed them. Cut-off read from the data, not from the text of the source: active = GI50 up to about 1.1 µM and inactive = higher.

Assays:
Assay in all cases: DTP human tumour cell line panel, 48 h
[1] = tested on: A549
[2] = tested on: SW-620
[3] = tested on: HT-29
[4] = tested on: SR
[5] = tested on: DU-145
[6] = tested on: ACHN
[7] = tested on: K562
[8] = tested on: MDA-N
[9] = tested on: EKVX
[10] = tested on: MOLT-4
[11] = tested on: IGROV-1
[12] = tested on: NCI-H522
[13] = tested on: M14
[14] = tested on: Hs-578T
[15] = tested on: HOP-92
[16] = tested on: HCT-15
[17] = tested on: 786-0
[18] = tested on: MDA-MB-231
[19] = tested on: HCC 2998
[20] = tested on: PC-3
[21] = tested on: MDA-MB-435
[22] = tested on: NCI-H23
[23] = tested on: SNB-19
[24] = tested on: UO-31
[25] = tested on: MCF7
[26] = tested on: SK-MEL-28
[27] = tested on: SF-268
[28] = tested on: SF-295
[29] = tested on: U-251
[30] = tested on: OVCAR-8
[31] = tested on: RPMI-8226
[32] = tested on: Malme-3M
[33] = tested on: SNB-75
[34] = tested on: NCI-H226
[35] = tested on: CAKI-1
[36] = tested on: SK-MEL-2
[37] = tested on: COLO 205
[38] = tested on: OVCAR-3
[39] = tested on: SK-MEL-5
[40] = tested on: SN12C
[41] = tested on: RXF 393
[42] = tested on: NCI-H460
[43] = tested on: HCT-116
[44] = tested on: UACC-257
[45] = tested on: OVCAR-4
[46] = tested on: CCRF-CEM
[47] = tested on: KM12
[48] = tested on: NCI/ADR-RES
[49] = tested on: BT-549
[50] = tested on: T47D
[51] = tested on: UACC-62
[52] = tested on: LOX IMVI
[53] = tested on: HOP-62
[54] = tested on: A498
[55] = tested on: SK-OV-3
[56] = tested on: OVCAR-5
[57] = tested on: HL-60
[58] = tested on: SF-539
[59] = tested on: TK-10

## O=C1O[C@H]2[C@H](O)[C@@H](OC(=O)c3cc(O)c(O)c4c3[C@@H]3C1=CC(=O)C(O)(O)C3(O)O4)[C@H](OC(=O)c1cc(O)c(O)c(O)c1)O[C@@H]2CO (some centres undefined) [FUROSIN]
[1]
  GI50: 79.1 µM (inactive)
[2]
  GI50: > 100 µM (inactive)
[3]
  GI50: 49.1 µM (inactive)
[4]
  GI50: 32.1 µM (inactive)
[5]
  GI50: > 100 µM (inactive)
[6]
  GI50: 41.6 µM (inactive)
[7]
  GI50: 38.1 µM (inactive)
[8]
  GI50: 33.6 µM (inactive)
[9]
  GI50: > 100 µM (inactive)
[10]
  GI50: > 100 µM (inactive)
[11]
  GI50: > 100 µM (inactive)
[12]
  GI50: 45.4 µM (inactive)
[13]
  GI50: 62.2 µM (inactive)
[14]
  GI50: > 100 µM (inactive)
[15]
  GI50: 42 µM (inactive)
[16]
  GI50: 36.4 µM
[17]
  GI50: > 100 µM (inactive)
[18]
  GI50: > 100 µM (inactive)
[19]
  GI50: > 100 µM (inactive)
[20]
  GI50: > 100 µM (inactive)
[21]
  GI50: 39.5 µM (inactive)
[22]
  GI50: > 100 µM (inactive)
[23]
  GI50: > 100 µM (inactive)
[24]
  GI50: 57.1 µM (inactive)
[25]
  GI50: > 100 µM (inactive)
[26]
  GI50: > 100 µM (inactive)
[27]
  GI50: 76.4 µM (inactive)
[28]
  GI50: 71.6 µM (inactive)
[29]
  GI50: > 100 µM (inactive)
[30]
  GI50: 79.1 µM (inactive)
[31]
  GI50: > 100 µM (inactive)
[32]
  GI50: > 100 µM (inactive)
[33]
  GI50: 78.9 µM (inactive)
[34]
  GI50: > 100 µM (inactive)
[35]
  GI50: > 100 µM (inactive)
[36]
  GI50: > 100 µM (inactive)
[37]
  GI50: 99.3 µM (inactive)
[38]
  GI50: 33.2 µM (inactive)
[39]
  GI50: 42.5 µM (inactive)
[40]
  GI50: > 100 µM (inactive)
[41]
  GI50: > 100 µM (inactive)
[42]
  GI50: 64.1 µM (inactive)
[43]
  GI50: 74.8 µM (inactive)
[44]
  GI50: > 100 µM (inactive)
[45]
  GI50: > 100 µM (inactive)
[46]
  GI50: 17.9 µM (inactive)
[47]
  GI50: 26.7 µM (inactive)
[48]
  GI50: > 100 µM (inactive)
[49]
  GI50: > 100 µM (inactive)
[50]
  GI50: > 100 µM (inactive)
[51]
  GI50: 75.7 µM (inactive)
[52]
  GI50: 48 µM (inactive)
[53]
  GI50: > 100 µM (inactive)
[54]
  GI50: > 100 µM (inactive)
[55]
  GI50: 86.5 µM (inactive)
[56]
  GI50: > 100 µM (inactive)
[57]
  GI50: 28.2 µM (inactive)

## CC[C@@]1(O)C(=O)OCc2c1cc1n(c2=O)Cc2c-1nc1ccc(O)cc1c2[Si](C)(C)C(C)(C)C [AR-67]
[1]
  GI50: < 0.01 µM (active)
[2]
  GI50: < 0.01 µM (active)
[3]
  GI50: 0.0855 µM (active)
[4]
  GI50: < 0.01 µM (active)
[5]
  GI50: < 0.01 µM (active)
[6]
  GI50: < 0.01 µM (active)
[7]
  GI50: < 0.0219 µM (active)
[8]
  GI50: < 0.0132 µM (active)
[9]
  GI50: 0.333 µM (active)
[10]
  GI50: < 0.01 µM (active)
[11]
  GI50: < 0.019 µM (active)
[12]
  GI50: < 0.01 µM (active)
[13]
  GI50: < 0.01 µM (active)
[14]
  GI50: 0.339 µM (active)
[15]
  GI50: 0.0132 µM (active)
[16]
  GI50: 0.122 µM
[17]
  GI50: < 0.01 µM (active)
[18]
  GI50: 0.286 µM (active)
[58]
  GI50: < 0.01 µM (active)
[19]
  GI50: 0.0205 µM (active)
[20]
  GI50: < 0.0208 µM (active)
[21]
  GI50: < 0.01 µM (active)
[22]
  GI50: < 0.01 µM (active)
[23]
  GI50: < 0.01 µM (active)
[24]
  GI50: < 0.01 µM (active)
[25]
  GI50: < 0.01 µM (active)
[26]
  GI50: 0.0317 µM (active)
[27]
  GI50: < 0.01 µM (active)
[59]
  GI50: 0.443 µM (active)
[29]
  GI50: < 0.01 µM (active)
[30]
  GI50: < 0.0123 µM (active)
[31]
  GI50: < 0.0152 µM (active)
[32]
  GI50: < 0.01 µM (active)
[33]
  GI50: < 0.01 µM (active)
[34]
  GI50: < 0.01 µM (active)
[35]
  GI50: < 0.01 µM (active)
[36]
  GI50: 0.125 µM (active)
[37]
  GI50: 0.031 µM (active)
[38]
  GI50: 0.0261 µM (active)
[39]
  GI50: < 0.01 µM (active)
[40]
  GI50: < 0.01 µM (active)
[41]
  GI50: < 0.01 µM (active)
[42]
  GI50: < 0.01 µM (active)
[43]
  GI50: < 0.01 µM (active)
[44]
  GI50: < 0.0149 µM (active)
[45]
  GI50: 0.0282 µM (active)
[46]
  GI50: < 0.01 µM (active)
[47]
  GI50: 0.024 µM (active)
[48]
  GI50: 0.0324 µM (active)
[49]
  GI50: < 0.0157 µM (active)
[50]
  GI50: < 0.01 µM (active)
[51]
  GI50: < 0.01 µM (active)
[52]
  GI50: < 0.01 µM (active)
[54]
  GI50: 0.0211 µM (active)
[55]
  GI50: 0.557 µM (active)
[56]
  GI50: 0.139 µM (active)
[57]
  GI50: < 0.01 µM (active)
